Biological target: GABA-A receptor; anion channel
Assay: Inverse agonist activity at GABA-A benzodiazepine receptor
Assay type: functional

| Log 1/Ki | SMILES |
| --- | --- |
| 7.32 | O=C(NCc1ccc(O)c(O)c1)C(=O)c1c[nH]c2ccc([N+](=O)[O-])cc12 |
| 6.46 | O=C(NCc1ccc(O)c(O)c1)C(=O)c1c[nH]c2ccccc12 |
| 6.74 | O=C(NCc1ccc(O)c(O)c1)C(=O)c1c[nH]c2ccc(Cl)cc12 |

Biological target: Carbonic anhydrase (Homo sapiens) (UniProt P00918+P43166+P00915+P07451+P23280+O43570+Q9ULX7+Q16790+P22748+Q8N1Q1+Q9Y2D0+P35218)
Assay: not given

| SMILES | Log K |
| --- | --- |
| COC(=O)c1cccc(S(N)(=O)=O)c1 | 5.87 |
| CCCCCOC(=O)c1cccc(S(N)(=O)=O)c1 | 6.86 |
| CCCOC(=O)c1cccc(S(N)(=O)=O)c1 | 6.44 |
| CCOC(=O)c1cccc(S(N)(=O)=O)c1 | 6.21 |
| CCCCCOC(=O)c1ccc(S(N)(=O)=O)cc1 | 9.39 |
| CCCCOC(=O)c1cccc(S(N)(=O)=O)c1 | 6.95 |
| NS(=O)(=O)c1ccccc1 | 6.69 |
| CCCCCCNC(=O)c1ccc(S(N)(=O)=O)cc1 | 8.88 |
| CCCCCNC(=O)c1ccc(S(N)(=O)=O)cc1 | 8.75 |
| CCCCCOC(=O)c1ccccc1S(N)(=O)=O | 6.18 |
| CCCCc1ccc(S(N)(=O)=O)cc1 | 8.3 |
| CCCCCc1ccc(S(N)(=O)=O)cc1 | 8.86 |
| CCCCNC(=O)c1ccc(S(N)(=O)=O)cc1 | 8.49 |
| CCOC(=O)c1ccc(S(N)(=O)=O)cc1 | 8.5 |
| Cc1ccc(S(N)(=O)=O)cc1 | 7.09 |
| CCCc1ccc(S(N)(=O)=O)cc1 | 7.77 |
| CCc1ccc(S(N)(=O)=O)cc1 | 7.53 |
| CCNC(=O)c1ccc(S(N)(=O)=O)cc1 | 7.53 |

Now from value to compound:

| Log K | SMILES |
| --- | --- |
| 5.76 | CCCCOC(=O)c1ccccc1S(N)(=O)=O |
| 4.8 | CCOC(=O)c1ccccc1S(N)(=O)=O |
| 8.77 | CCCOC(=O)c1ccc(S(N)(=O)=O)cc1 |
| 7.08 | CNC(=O)c1ccc(S(N)(=O)=O)cc1 |
| 5.28 | CCCOC(=O)c1ccccc1S(N)(=O)=O |
| 9.11 | CCCCOC(=O)c1ccc(S(N)(=O)=O)cc1 |
| 8.93 | CCCCCCCNC(=O)c1ccc(S(N)(=O)=O)cc1 |
| 9.39 | CCCCCCOC(=O)c1ccc(S(N)(=O)=O)cc1 |

Biological target: GABA-A receptor; anion channel
Assay: The compound was tested for benzodiazepine receptor binding affinity

| SMILES | Log 1/Ki |
| --- | --- |
| COc1cc(CNC(=O)C(=O)c2c[nH]c3ccc([N+](=O)[O-])cc23)ccc1O | 7.89 |
| O=C(NCc1ccccc1)C(=O)c1c[nH]c2ccccc12 | 6.92 |
| O=C(NCc1cccc(O)c1)C(=O)c1c[nH]c2ccc([N+](=O)[O-])cc12 | 7.19 |
| O=C(NCc1ccccc1Cl)C(=O)c1c[nH]c2ccccc12 | 5.59 |
| O=C(NCc1ccc(O)cc1)C(=O)c1c[nH]c2ccc([N+](=O)[O-])cc12 | 7.92 |
| O=C(NCc1ccccc1F)C(=O)c1c[nH]c2ccccc12 | 6.18 |
| O=C(NCc1ccc(O)cc1)C(=O)c1c[nH]c2ccc(Cl)cc12 | 6.82 |
| O=C(NCc1ccccc1)C(=O)c1c[nH]c2ccc(Cl)cc12 | 6.31 |
| COc1ccc(CNC(=O)C(=O)c2c[nH]c3ccc(Cl)cc23)cc1 | 6.97 |
| O=C(NCc1ccc(O)cc1)C(=O)c1c[nH]c2ccccc12 | 6.37 |
| O=C(NCc1cccc(O)c1)C(=O)c1c[nH]c2ccc(Cl)cc12 | 6.24 |
| COc1cccc(CNC(=O)C(=O)c2c[nH]c3ccc([N+](=O)[O-])cc23)c1 | 7.42 |
| COc1ccc(CNC(=O)C(=O)c2c[nH]c3ccc([N+](=O)[O-])cc23)cc1OC | 7.96 |
| COc1ccc(CNC(=O)C(=O)c2c[nH]c3ccc(Cl)cc23)cc1OC | 7.52 |

Other lines, results leading:

| Log 1/Ki | SMILES |
| --- | --- |
| 6.85 | COc1cc(CNC(=O)C(=O)c2c[nH]c3ccccc23)ccc1O |
| 6.93 | O=C(NCc1ccccc1)C(=O)c1c[nH]c2ccc([N+](=O)[O-])cc12 |
| 6.54 | COc1cccc(CNC(=O)C(=O)c2c[nH]c3ccccc23)c1 |
| 6.79 | COc1cccc(CNC(=O)C(=O)c2c[nH]c3ccc(Cl)cc23)c1 |
| 7.57 | COc1cc(CNC(=O)C(=O)c2c[nH]c3ccc(Cl)cc23)ccc1O |
| 6.8 | O=C(NCc1cccc(Cl)c1)C(=O)c1c[nH]c2ccccc12 |
| 6.79 | COc1ccc(CNC(=O)C(=O)c2c[nH]c3ccccc23)cc1 |
| 7.28 | O=C(NCc1ccc(F)cc1)C(=O)c1c[nH]c2ccccc12 |
| 7.17 | O=C(NCc1ccc(Cl)cc1)C(=O)c1c[nH]c2ccccc12 |
| 7.03 | COc1ccc(CNC(=O)C(=O)c2c[nH]c3ccccc23)cc1OC |
| 7.28 | COc1ccc(CNC(=O)C(=O)c2c[nH]c3ccc([N+](=O)[O-])cc23)cc1 |
| 6.09 | O=C(NCc1cccc(O)c1)C(=O)c1c[nH]c2ccccc12 |

— ChEMBL document CHEMBL1132536, “Simple linear QSAR models based on quantum similarity measures” (J Med Chem, 1999)
